Experimental data as given in US12084472B2 (Ardelyx, Inc., priority 2015, dated 2024).

Molecular target: T1, human TGR5 (Homo sapiens, UniProt Q8TDU6)
T1 construct: expressed in transfected cells; host or cells: HEK293
T1 sequence (Q8TDU6 1-330): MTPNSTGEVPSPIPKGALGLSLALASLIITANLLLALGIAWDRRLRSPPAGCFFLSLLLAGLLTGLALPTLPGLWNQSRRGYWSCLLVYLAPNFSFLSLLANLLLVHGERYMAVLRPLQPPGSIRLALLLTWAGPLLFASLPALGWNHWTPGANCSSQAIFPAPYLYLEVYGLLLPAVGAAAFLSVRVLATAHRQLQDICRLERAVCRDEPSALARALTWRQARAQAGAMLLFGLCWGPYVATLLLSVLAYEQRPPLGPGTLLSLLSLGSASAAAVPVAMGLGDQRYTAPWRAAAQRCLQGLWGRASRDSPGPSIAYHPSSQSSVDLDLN
Test: Cell-based TGR5 assay (cAMP generation, HTRF)
Conditions: HEK293 cells stably transfected with human TGR5; cAMP by HTRF; 30 minutes at 37° C.; read-out: pEC50 Human TGR5 (converted)
Description: A primary cell-based assay utilized HEK293 cells stably transfected with a gene encoding human TGR5. Cells were treated with candidate TGR5 activators and assessed for increased intercellular levels of cAMP.
TGR5-mediated cAMP generation was measured using a homogeneous time resolved fluorescence (HTRF) detection method (Cisbio). Test compounds were dissolved in DMSO to a final concentration of 10 mM. Serial 3-fold dilutions of the stock solution were made in DMSO, and these solutions were diluted 100-fold into Hanks Balanced Salt Solution supplemented with 10 mM HEPES pH 7.4, 0.003% Tween 20 and 0.5 mM isobutyl methylxanthine. Five microliters of diluted test compounds were added to wells of a black 384 well plate.
Cells grown overnight at 37° C./5% CO2 were harvested and resuspended in Hanks Balanced Salt Solution containing 10 mM HEPES to a concentration of […]. Five microliters (2500 cells) were dispensed into each well of the 384 well plate containing compound dilutions and incubated at 37° C. for 30 minutes. Each compound was tested in duplicate at 12 concentrations ranging from 0.05 nM to 10 μM.
Following incubation with test compounds, cAMP was detected through the successive addition of 5 μL each of cAMP labeled with the modified allophyocyanin dye d2 (cAMP-d2) and cryptate-labeled anti-cAMP in lysis buffer, and reading HTRF per the manufacturer's instructions.
A standard curve was used to convert the raw HTRF data into [cAMP]. The concentration of cAMP was plotted against log [test compound] and the resulting curves were fit to a 3-parameter logistical equation using GraphPad Prism to determine pEC50 (the negative log of the EC50) and the magnitude of the response.

SMILES | EC50
O=C(CCCSc1ccc(Cl)c(COC2(c3cnccc3-c3ccccc3OC3CC3)CC2)c1)N(C[C@@H](O)[C@H](O)[C@@H](O)[C@@H](O)CO)[C@H]1CC[C@@H](O)CC1 [Compound I-688, 4-{[4-chloro-3-({1-[4-(2-cyclopropoxyphenyl)pyridin-3-yl]cyclopropoxy}methyl)phenyl]sulfanyl}-N-[(2R,3S,4S,5S)-2,3,4,5,6-pentahydroxyhexyl]-N-[(1s,4s)-4-hydroxycyclohexyl]butanamide] | 126 to 1000 nM
O=C(CCCCc1cc(Cl)c(COC2(c3cnccc3-c3ccccc3OC3CC3)CC2)cc1Cl)NCCOCCOCCOCCNC(=O)CCCCc1cc(Cl)c(COC2(c3cnccc3-c3ccccc3OC3CC3)CC2)cc1Cl [Compound I-90, N,N′-(((oxybis(ethane-2,1-diyl))bis(oxy))bis(ethane-2,1-diyl))bis(5-(2,5-dichloro-4-((1-(4-(2-cyclopropoxyphenyl)pyridin-3-yl)cyclopropoxy)methyl)phenyl)pentanamide)] | 126 to 1000 nM
Clc1ccc(Cl)c(COC2(c3cnccc3-c3ccccc3OC3CCC3)CC2)c1 [Compound I-49, 4-(2-cyclobutoxyphenyl)-3-{1-[(2,5-dichlorophenyl)methoxy]cyclopropyl}pyridine] | < 100 nM
CS(=O)(=O)CCN(C[C@H](O)[C@@H](O)[C@H](O)[C@H](O)CO)C(=O)CCCSc1ccc(Cl)c(COC2(c3cnccc3-c3ccccc3OC3CC3)CC2)c1 [Compound I-665, 4-{[4-chloro-3-({1-[4-(2-cyclopropoxyphenyl)pyridin-3-yl]cyclopropoxy}methyl)phenyl]sulfanyl}-N-(2-methanesulfonylethyl)-N-[(2S,3R,4R,5R)-2,3,4,5,6-pentahydroxyhexyl]butanamide] | 126 to 1000 nM
CN(CCCCNC(=O)NC[C@H](O)[C@@H](O)[C@H](O)[C@H](O)CO)S(=O)(=O)c1cc(CNC2(c3cnccc3-c3ccccc3OC3CC3)CC2)c(Cl)cc1Cl [Compound I-392, 1-[4-(N-methyl[2,4-dichloro-5-[([1-[4-(2-cyclopropoxyphenyl)pyridin-3-yl]cyclopropyl]amino)methyl]benzene]sulfonamido)butyl]-3-[(2S,3R,4R,5R)-2,3,4,5,6-pentahydroxyhexyl]urea] | < 100 nM
COCCCN(C[C@H](O)[C@@H](O)[C@H](O)[C@H](O)CO)C(=O)CCCSc1ccc(Cl)c(COC2(c3cnccc3-c3ccccc3OC3CC3)CC2)c1 [Compound I-673, 4-{[4-chloro-3-({1-[4-(2-cyclopropoxyphenyl)pyridin-3-yl]cyclopropoxy}methyl)phenyl]sulfanyl}-N-(3-methoxypropyl)-N-[(2S,3R,4R,5R)-2,3,4,5,6-pentahydroxyhexyl]butanamide] | 126 to 1000 nM
CS(=O)(=O)CCN(CCCCSc1ccc(Cl)c(CNC2(c3cnccc3-c3ccccc3OC3CC3)CC2)c1)C(=O)[C@@H](O)[C@@H](O)[C@H](O)[C@@H](O)CO [Compound I-584, (2S,3S,4R,5S)-N-[4-({4-chloro-3-[({-[4-(2-cyclopropoxyphenyl)pyridin-3-yl]cyclopropyl}amino)methyl]phenyl}sulfanyl)butyl]-2,3,4,5,6-pentahydroxy-N-(2-methanesulfonylethyl) hexanamide] | < 100 nM
Cc1cc(COC2(c3cnccc3-c3ccccc3OC3CC3)CC2)c(C)cc1CCCCNC(=O)NC[C@H](O)[C@@H](O)[C@H](O)[C@H](O)CO (stereo in doubt) [Compound I-150, 1-{4-[4-({1-[4-(2-cyclopropoxyphenyl)pyridin-3-yl]cyclopropoxy}methyl)-2,5-dimethylphenyl]butyl}-3-[(2S,3R,4R,5R)-2,3,4,5,6-pentahydroxyhexyl]urea] | < 100 nM
FC(F)(F)c1ccc(Cl)c(CNC2(c3cnccc3-c3ccccc3OC3CC3)CC2)c1 [Compound I-32, N-{[2-chloro-5-(trifluoromethyl)phenyl]methyl}-1-[4-(2-cyclopropoxyphenyl)pyridin-3-yl]cyclopropan-1-amine] | < 100 nM
Cc1cc(COC2(c3cnccc3-c3ccccc3OC3CC3)CC2)c(Cl)cc1CCCCN(CCOCCO)C(=O)NC[C@H](O)[C@@H](O)[C@H](O)[C@H](O)CO [Compound I-117, 1-{4-[5-chloro-4-({1-[4-(2-cyclopropoxyphenyl)pyridin-3-yl]cyclopropoxy}methyl)-2-methylphenyl]butyl}-1-[2-(2-hydroxyethoxy)ethyl]-3-[(2S,3R,4R,5R)-2,3,4,5,6-pentahydroxyhexyl]urea] | < 100 nM
O=C(CO)N(CCCCc1cc(Cl)c(COC2(c3cnccc3-c3ccccc3OC3CC3)CC2)cc1Cl)C[C@H](O)[C@@H](O)[C@H](O)[C@H](O)CO [Compound I-71, N-{4-[2,5-dichloro-4-({1-[4-(2-cyclopropoxyphenyl)pyridin-3-yl]cyclopropoxy}methyl)phenyl]butyl}-2-hydroxy-N-[(2S,3R,4R,5R)-2,3,4,5,6-pentahydroxyhexyl]acetamide] | < 100 nM
O=S(=O)(c1ccc(Cl)c(COC2(c3cnccc3-c3ccccc3OC3CC3)CC2)c1)N1CCCC1 [Compound I-395, 3-(1-{[2-chloro-5-(pyrrolidine-1-sulfonyl)phenyl]methoxy}cyclopropyl)-4-(2-cyclopropoxyphenyl)pyridine] | < 100 nM
CC(=O)NCCN(CCCCSc1ccc(Cl)c(CNC2(c3cnccc3-c3ccccc3OC3CC3)CC2)c1)C(=O)[C@@H](O)[C@@H](O)[C@H](O)[C@@H](O)CO [Compound I-563, (2S,3S,4R,5S)-N-[4-({4-chloro-3-[({1-[4-(2-cyclopropoxyphenyl)pyridin-3-yl]cyclopropyl}amino)methyl]phenyl}sulfanyl)butyl]-N-(2-acetamidoethyl)-2,3,4,5,6-pentahydroxyhexanamide] | 126 to 1000 nM
Cc1ccc(SCCCC(=O)NC[C@H](O)[C@@H](O)[C@H](O)[C@H](O)CO)nc1CNC1(c2cnccc2-c2ccccc2OC2CC2)CC1 [Compound I-653, 4-({6-[({1-[4-(2-cyclopropoxyphenyl)pyridin-3-yl]cyclopropyl}amino)methyl]-5-methylpyridin-2-yl}sulfanyl)-N-[(2S,3R,4R,5R)-2,3,4,5,6-pentahydroxyhexyl]butanamide] | 1260 to 10000 nM
O=C1CCCN1CCCN(CCCCSc1ccc(Cl)c(COC2(c3cnccc3-c3ccccc3OC3CC3)CC2)c1)C(=O)[C@@H](O)[C@@H](O)[C@H](O)[C@@H](O)CO [Compound I-515, (2S,3S,4R,5S)-N-(4-{[4-chloro-3-({1-[4-(2-cyclopropoxyphenyl)pyridin-3-yl]cyclopropoxy}methyl)phenyl]sulfanyl}butyl)-2,3,4,5,6-pentahydroxy-N-[3-(2-oxopyrrolidin-1-yl)propyl]hexanamide] | < 100 nM
CN(CC(=O)O)C[C@H](NC(=O)CCCCc1cc(Cl)c(COC2(c3cnccc3-c3ccccc3OC3CC3)CC2)cc1Cl)[C@@H](O)[C@H](O)[C@H](O)CO (stereo in doubt) [Compound I-164, 2-{[(2S,3R,4S,5R)-2-{5-[2,5-dichloro-4-({1-[4-(2-cyclopropoxyphenyl)pyridin-3-yl]cyclopropoxy}methyl)phenyl]pentanamido}-3,4,5,6-tetrahydroxyhexyl](methyl)amino}acetic acid] | < 100 nM
COc1cc(C)c(CNC2(c3cnccc3-c3ccccc3OC3CC3)CC2)cc1C [Compound I-29, 1-[4-(2-cyclopropoxyphenyl)pyridin-3-yl]-N-[(4-methoxy-2,5-dimethylphenyl)methyl]cyclopropan-1-amine] | 126 to 1000 nM
O=C(NC[C@H](O)[C@@H](O)[C@H](O)[C@H](O)CO)N(CCCCc1cc(Cl)c(COC2(c3cnccc3-c3ccccc3OC3CC3)CC2)cc1Cl)CCOCCO [Compound I-86, 1-(4-(2,5-dichloro-4-((1-(4-(2-cyclopropoxyphenyl)pyridin-3-yl)cyclopropoxy)methyl)phenyl)butyl)-1-(2-(2-hydroxyethoxy)ethyl)-3-((2S,3R,4R,5R)-2,3,4,5,6-pentahydroxyhexyl)urea] | < 100 nM
Cc1ccc(C(C)CCCC(=O)N(CCO)C[C@H](O)[C@@H](O)[C@H](O)[C@H](O)CO)cc1CNC1(c2cnccc2-c2ccccc2OC2CC2)CC1 (stereo partly drawn) [Compound I-355, 5-{3-[({1-[4-(2-cyclopropoxyphenyl)pyridin-3-yl]cyclopropyl}amino)methyl]-4-methylphenyl}-N-(2-hydroxyethyl)-N-[(2S,3R,4R,5R)-2,3,4,5,6-pentahydroxyhexyl]hexanamide] | < 100 nM
O=C(NCCCCCSc1ccc(Cl)c(COC2(c3cnccc3-c3ccccc3OC3CC3)CC2)c1)NCCCCNC(=O)NC[C@H](O)[C@@H](O)[C@H](O)[C@H](O)CO [Compound I-627] | < 100 nM
